The results in this text go back to US8912213B2, “Synthesis and use of dual tyrosyl-DNA phosphodiesterase I (TDP1)- topoisomerase I (TOP1) inhibitors” (Purdue Research Foundation, priority 2012, dated 2014).

As usually defined, the IC50 is the midpoint of a concentration-inhibition curve.

“Also recorded” adds a separate entry of the source. Where two headings read alike, the source gives them in different places.

One assay has as its target Tdp1 (Homo sapiens (Human), UniProt Q9NUW8). Kind of assay: Gel-based assay measuring the inhibition of recombinant Tdp1.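 Note: 5′-32P-labeled single-stranded DNA with 3′-phosphotyrosine incubated with 5 pM enzyme for 15 min at room temperature, inhibition seen as loss of 3′-phosphate product band by densitometry.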 Type of assay: biochemical.
The next assay has as its target Human recombinant Top1 (Homo sapiens (Human), UniProt P11387). In words: Topoisomerase I-mediated DNA cleavage reactions.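 For all read-outs here: 3′-end radiolabeled DNA substrate (about 2 nM) incubated with recombinant Top1 and compound for 20 min at 25 °C, cleavage products resolved by denaturing PAGE and phosphoimaging.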 Format: biochemical. To be noted: for Top1 (compound-induced DNA cleavage, semiquantitative scale): series (B), relative to 1 μM camptothecin (90) or MJ-III-65 (91); for Top1 (compound-induced DNA cleavage due to Top1 inhibition): semiquantitative.

The test system of another assay is HOP-62. Kind of assay: NCI screen cytotoxicity, lung HOP-62. Type of assay: cell-based. To be noted: Homo sapiens, 50% growth inhibition.
In a further assay the test system is HCT-116. Kind of assay: NCI screen cytotoxicity, colon HCT-116. Type of assay: cell-based. The conditions noted are these: Homo sapiens, 50% growth inhibition.
Another assay has as its system UACC-62. Kind of assay: NCI screen cytotoxicity, melanoma UACC-62. Format: cell-based. The conditions noted are these: Homo sapiens, 50% growth inhibition.
In another assay the test system is SN12C. Kind of assay: NCI screen cytotoxicity, renal SN12C. Type of assay: cell-based. To be noted: Homo sapiens, 50% growth inhibition.
For assay [1], the system named is all human cancer cell lines successfully tested. Kind of assay: NCI screen, mean graph midpoint (MGM) for growth inhibition. To be noted: for GI50: Homo sapiens, read-out: MGM (μM).
The test system of another assay is DU-145. In words: NCI screen cytotoxicity, prostate DU-145. Format: cell-based. The conditions noted are these: Homo sapiens, DU-145, read-out: Cytotoxicity (GI50 in μM) prostate DU-145; 50% growth inhibition.
In another assay the test system is MDA-MB-435. Kind of assay: NCI screen cytotoxicity, breast MDA-MB-435. Format: cell-based. To be noted: Homo sapiens, MDA-MB-435, read-out: Cytotoxicity (GI50 in μM) breast MDA-MB-435; 50% growth inhibition.
In another assay the test system is OVCAR-3. Kind of assay: NCI screen cytotoxicity, ovarian OVCAR-3. To be noted: Homo sapiens, OVCAR-3, read-out: Cytotoxicity (GI50 in μM) ovarian OVCAR-3.
Setting [2] is: series (A), gel-based assay, rec. human Tdp1, read-out: IC50 (μM) recombinant Tdp1.

Sequence of Human recombinant Top1 (P11387 whole entry): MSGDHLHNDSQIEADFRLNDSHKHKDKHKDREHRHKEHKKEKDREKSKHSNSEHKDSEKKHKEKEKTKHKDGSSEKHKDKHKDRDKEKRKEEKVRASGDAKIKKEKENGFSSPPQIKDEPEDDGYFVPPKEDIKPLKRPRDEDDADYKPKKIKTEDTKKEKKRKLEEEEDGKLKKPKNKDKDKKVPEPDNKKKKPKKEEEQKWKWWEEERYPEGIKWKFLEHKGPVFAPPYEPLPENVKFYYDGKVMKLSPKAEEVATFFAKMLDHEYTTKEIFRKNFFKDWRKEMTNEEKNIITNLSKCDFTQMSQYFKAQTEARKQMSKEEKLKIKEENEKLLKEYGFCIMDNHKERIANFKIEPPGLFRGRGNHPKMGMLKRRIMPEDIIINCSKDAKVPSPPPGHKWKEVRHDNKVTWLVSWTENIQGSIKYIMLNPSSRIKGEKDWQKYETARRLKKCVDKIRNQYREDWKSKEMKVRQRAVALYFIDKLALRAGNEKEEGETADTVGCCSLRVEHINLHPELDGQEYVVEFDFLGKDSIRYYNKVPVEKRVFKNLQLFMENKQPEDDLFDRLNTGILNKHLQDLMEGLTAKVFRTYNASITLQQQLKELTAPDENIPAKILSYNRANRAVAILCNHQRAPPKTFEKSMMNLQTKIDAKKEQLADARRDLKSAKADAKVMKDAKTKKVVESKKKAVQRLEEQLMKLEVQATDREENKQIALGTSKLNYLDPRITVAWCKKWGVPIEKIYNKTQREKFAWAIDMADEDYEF
Sequence of Tdp1 (Q9NUW8 whole entry): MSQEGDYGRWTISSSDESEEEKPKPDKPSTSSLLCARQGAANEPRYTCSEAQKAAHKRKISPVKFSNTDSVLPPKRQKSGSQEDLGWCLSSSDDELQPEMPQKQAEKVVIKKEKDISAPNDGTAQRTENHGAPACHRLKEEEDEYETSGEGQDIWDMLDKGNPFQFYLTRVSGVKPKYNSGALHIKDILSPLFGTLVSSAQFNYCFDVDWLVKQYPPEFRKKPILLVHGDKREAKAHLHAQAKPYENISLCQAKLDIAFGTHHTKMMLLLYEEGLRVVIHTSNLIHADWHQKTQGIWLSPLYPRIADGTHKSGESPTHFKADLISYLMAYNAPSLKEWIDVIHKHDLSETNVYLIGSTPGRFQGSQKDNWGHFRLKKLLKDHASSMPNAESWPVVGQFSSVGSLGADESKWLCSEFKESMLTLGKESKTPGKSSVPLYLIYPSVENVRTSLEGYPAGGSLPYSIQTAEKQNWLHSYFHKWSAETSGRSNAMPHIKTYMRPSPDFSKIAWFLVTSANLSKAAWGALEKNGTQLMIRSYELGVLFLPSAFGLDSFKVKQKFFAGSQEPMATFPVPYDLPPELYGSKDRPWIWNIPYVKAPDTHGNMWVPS
Protocol for Human recombinant Top1: Additionally, all indenoisoquinoline sulfonates and sulfonamides were tested for Top1 cleavage complex poisoning in a Top1-mediated DNA cleavage assay.
Topoisomerase I-Mediated DNA Cleavage Reactions. Human recombinant Top1 was purified from baculovirus as previously described. DNA cleavage reactions were prepared as previously reported with the exception of the DNA substrate. […] Unincorporated [^32P]dGTP was removed using mini Quick Spin DNA columns (Roche, Indianapolis, Ind.), and the eluate containing the 3′-end-labeled DNA substrate was collected. Approximately 2 nM radiolabeled DNA substrate was incubated with recombinant Top1 in 20 μL of reaction buffer [10 mM Tris-HCl (pH 7.5), 50 mM KCl, 5 mM MgCl2, 0.1 mM EDTA, and 15 μg/mL BSA] at 25° C. for 20 min in the presence of various concentrations of compounds. The reactions were terminated by adding SDS (0.5% final concentration) followed by the addition of two volumes of loading dye (80% formamide, 10 mM sodium hydroxide, 1 mM sodium EDTA, 0.1% xylene cyanol, and 0.1% bromphenol blue). Aliquots of each reaction mixture were subjected to 20% denaturing PAGE. Gels were dried and visualized by using a phosphoimager and ImageQuant software (Molecular Dynamics).
Topoisomerase I-Mediated DNA Cleavage Reactions. Top1 reactions were performed as recently described. […] The reactions were terminated by adding SDS (0.5% final concentration) followed by the addition of two volumes of loading dye (80% formamide, 10 mM sodium hydroxide, 1 mM sodium EDTA, 0.1% xylene cyanol, and 0.1% bromphenol blue). Reactions were subjected to 20% denaturing PAGE. Gels were dried and visualized by using a Typhoon 8600 and ImageQuant software (Molecular Dynamics).
Protocol for Tdp1: Tdp1 inhibitory activity was measured by the drug's ability to inhibit the hydrolysis of the phosphodiester linkage between tyrosine and the 3′-end of the DNA substrate, and to prevent the generation of an oligonucleotide with a free 3′-phosphate (N14P). Therefore, the disappearance of the gel band for N14P indicated Tdp1 inhibition.
Gel-Based Assay Measuring the Inhibition of Recombinant Tdp1. A 5′-[^32P]-labeled single-stranded DNA oligonucleotide containing a 3′-phosphotyrosine (N14Y) was generated as described by Dexheimer et al. The DNA substrate was then incubated with 5 pM recombinant Tdp1 in the absence or presence of inhibitor for 15 min at room temperature in a buffer containing 50 mM Tris HCl, pH 7.5, 80 mM KCl, 2 mM EDTA, 1 mM DTT, 40 μg/ml BSA and 0.01% Tween-20. […] Gel images were scanned using a Typhoon 8600 (GE Healthcare) and densitometric analyses were performed using the ImageQuant software (GE Healthcare).

Take `NCCCn1c2c(c3ccccc3c1=O)C(=O)c1ccccc1-2` [Compound 1 of (B)]: on Tdp1, the IC50 was 12 to 37 µM.
In the case of `COC(=O)C(=O)Nc1ccc2c3c(n(C)c(=O)c2c1)-c1ccccc1C3=O` [Compound 9 of (B), Methyl 2-[(6-Methyl-5,11-dioxo-6,11-dihydro-5H-indeno[1,2-c]isoquinolin-3-yl)amino]-2-oxoacetate], on Tdp1, the concentration for half-maximal inhibition (IC50) is over 111 µM and the “Tdp1 inhibitory activity (in words)” value was “inactive”. Besides, at Human recombinant Top1, the “Top1 (compound-induced DNA cleavage, semiquantitative scale)” value stood at 0.
As for `COC(=O)CC(=O)Nc1ccc2c3c(n(C)c(=O)c2c1)-c1ccccc1C3=O` [Compound 10 of (B), Methyl 3-[(6-Methyl-5,11-dioxo-6,11-dihydro-5H-indeno[1,2-c]isoquinolin-3-yl)amino]-3-oxopropanoate], on Tdp1, the IC50 is over 111 µM. For the same compound, the “Top1 (compound-induced DNA cleavage, semiquantitative scale)” value at Human recombinant Top1 is recorded as 0.
Regarding `COC(=O)CCC(=O)Nc1ccc2c3c(n(C)c(=O)c2c1)-c1ccccc1C3=O` [Compound 11 of (B), Methyl 4-[(6-Methyl-5,11-dioxo-6,11-dihydro-5H-indeno[1,2-c]isoquinolin-3-yl)amino]-4-oxobutanoate], at Tdp1, the IC50 was over 111 µM. Further, at Human recombinant Top1, the “Top1 (compound-induced DNA cleavage, semiquantitative scale)” value is on record as “(+)”.
Consider `COC(=O)CCCC(=O)Nc1ccc2c3c(n(C)c(=O)c2c1)-c1ccccc1C3=O` [Compound 12 of (B), Methyl 5-[(6-Methyl-5,11-dioxo-6,11-dihydro-5H-indeno[1,2-c]isoquinolin-3-yl)amino]-5-oxopentanoate], for which the IC50 on Tdp1 is over 111 µM. In addition, the “Top1 (compound-induced DNA cleavage, semiquantitative scale)” value at Human recombinant Top1 is given as “+”.
On to `COC(=O)CCCCC(=O)Nc1ccc2c3c(n(C)c(=O)c2c1)-c1ccccc1C3=O` [Compound 13 of (B), Methyl 6-[(6-Methyl-5,11-dioxo-6,11-dihydro-5H-indeno[1,2-c]isoquinolin-3-yl)amino]-6-oxohexanoate], for which the 50% inhibitory concentration (IC50) at Tdp1 was over 111 µM. In addition, the “Top1 (compound-induced DNA cleavage, semiquantitative scale)” value on Human recombinant Top1 is 0.
Take `Cn1c2c(c3ccc(NC(=O)CC(=O)O)cc3c1=O)C(=O)c1ccccc1-2` [Compound 15 of (B), 3-[(6-Methyl-5,11-dioxo-6,11-dihydro-5H-indeno[1,2-c]isoquinolin-3-yl)amino]-3-oxopropanoic Acid]: on Tdp1, the IC50 was over 111 µM and the “Tdp1 inhibitory activity (in words)” value was “inactive”.
Take `COC(=O)CCC(=O)Nc1ccc2c3c(n(CCCN)c(=O)c2c1)-c1ccccc1C3=O` [Compound 24 of (B), Methyl 4-[(6-(3-Aminopropyl)-5,11-dioxo-6,11-dihydro-5H-indeno[1,2-c]isoquinolin-3-yl)amino]-4-oxobutanoate]: the IC50 at Tdp1 fell in the range of 37 to 111 µM. For the same compound, the “Top1 (compound-induced DNA cleavage, semiquantitative scale)” value at Human recombinant Top1 was “(+)”.
With `Cl.NCCCn1c2c(c3ccc(NC(=O)C(=O)O)cc3c1=O)C(=O)c1ccccc1-2` [Compound 32 of (B), 2-[(6-(3-Aminopropyl)-5,11-dioxo-6,11-dihydro-5H-indeno[1,2-c]isoquinolin-3-yl)amino]-2-oxoacetic Acid Hydrochloride], the IC50 at Tdp1 is over 111 µM. In addition, the “Top1 (compound-induced DNA cleavage, semiquantitative scale)” value at Human recombinant Top1 is reported as “+”.
For `Cl.NCCCn1c2c(c3ccc(NC(=O)CC(=O)O)cc3c1=O)C(=O)c1ccccc1-2` [Compound 33 of (B), 3-[(6-(3-Aminopropyl)-5,11-dioxo-6,11-dihydro-5H-indeno[1,2-c]isoquinolin-3-yl)amino]-3-oxopropanoic Acid Hydrochloride], in that order: over 111 µM and “+”.
As for `Cl.NCCCn1c2c(c3ccc(NC(=O)CCC(=O)O)cc3c1=O)C(=O)c1ccccc1-2` [Compound 34 of (B), 4-[(6-(3-Aminopropyl)-5,11-dioxo-6,11-dihydro-5H-indeno[1,2-c]isoquinolin-3-yl)amino]-4-oxobutanoic Acid Hydrochloride], the IC50 at Tdp1 is over 111 µM. For the same compound, on Human recombinant Top1, the “Top1 (compound-induced DNA cleavage, semiquantitative scale)” value was “+”.
For `Cl.NCCCn1c2c(c3ccc(NC(=O)CCCC(=O)O)cc3c1=O)C(=O)c1ccccc1-2` [Compound 35 of (B), 5-[(6-(3-Aminopropyl)-5,11-dioxo-6,11-dihydro-5H-indeno[1,2-c]isoquinolin-3-yl)amino]-5-oxopentanoic Acid Hydrochloride], in that order: over 111 µM and 0.
For `Cl.NCCCn1c2c(c3ccc(NC(=O)CCCCC(=O)O)cc3c1=O)C(=O)c1ccccc1-2` [Compound 36 of (B), 6-[(6-(3-Aminopropyl)-5,11-dioxo-6,11-dihydro-5H-indeno[1,2-c]isoquinolin-3-yl)amino]-6-oxohexanoic Acid Hydrochloride], in that order: over 111 µM and “+”.
Regarding `CCOC(=O)CNc1ccc2c3c(n(C)c(=O)c2c1)-c1ccccc1C3=O` [Compound 38 of (B), Ethyl 2-[(6-Methyl-5,11-dioxo-6,11-dihydro-5H-indeno[1,2-c]isoquinolin-3-yl)amino]acetate], at Tdp1, the IC50 was over 111 µM. For the same compound, the “Tdp1 inhibitory activity (in words)” value at Tdp1 (listed as 38) is “inactivity; also recorded: inactive”. The “Top1 (compound-induced DNA cleavage, semiquantitative scale)” value at Human recombinant Top1 is 0.
As for `Cn1c2c(c3ccc(NCC(=O)O)cc3c1=O)C(=O)c1ccccc1-2` [Compound 41 of (B), 2-[(6-Methyl-5,11-dioxo-6,11-dihydro-5H-indeno[1,2-c]isoquinolin-3-yl)-amino]acetic Acid], at Tdp1, the IC50 is over 111 µM. Also, at Tdp1 (listed as 41), the “Tdp1 inhibitory activity (in words)” value is “inactivity; also recorded: inactive”. The “Top1 (compound-induced DNA cleavage, semiquantitative scale)” value at Human recombinant Top1 came to 0.
For `CC(C)(C)OC(=O)NCCCn1c2c(c3ccc(NCC(=O)O)cc3c1=O)C(=O)c1ccccc1-2` [Compound 42 of (B), 2-((6-(3-((tert-Butoxycarbonyl)amino)propyl)-5,11-dioxo-6,11-dihydro-5H-indeno[1,2-c]isoquinolin-3-yl)amino)acetic Acid], on Tdp1, the IC50 is over 111 µM and the “Tdp1 inhibitory activity (in words)” value is recorded as “inactivity”. On Human recombinant Top1, the “Top1 (compound-induced DNA cleavage, semiquantitative scale)” value is listed as 0.
For `COc1ccc2c(c1)-c1c(c3ccc([N+](=O)[O-])cc3c(=O)n1CCCBr)C2=O` [Compound 49 of (B), 6-(3-Bromopropyl)-5,6-dihydro-8-methoxy-3-nitro-5,11-dioxo-11H-indeno[1,2-c]isoquinoline], at Tdp1, the IC50 was over 111 µM and the “Tdp1 inhibitory activity (in words)” value was “very weak or inactive”. Besides, the “Top1 (compound-induced DNA cleavage, semiquantitative scale)” value at Human recombinant Top1 was “+++”.
For `COc1ccc2c(c1)-c1c(c3ccc([N+](=O)[O-])cc3c(=O)n1CCCN=[N+]=[N-])C2=O` [Compound 50 of (B), 6-(3-Azidopropyl)-5,6-dihydro-8-methoxy-3-nitro-5,11-dioxo-11H-indeno[1,2-c]isoquinoline], in that order: over 111 µM, “very weak or inactive” and “+”.
With `COc1ccc2c(c1)-c1c(c3ccc([N+](=O)[O-])cc3c(=O)n1CCCN1CCOCC1)C2=O` [Compound 53 of (B), 8-Methoxy-6-(3-morpholinopropyl)-3-nitro-5H-indeno[1,2-c]isoquinoline-5,11(6H)-dione], at Tdp1, the IC50 was over 111 µM and the “Tdp1 inhibitory activity (in words)” value was “very weak or inactive”. Further, the “Top1 (compound-induced DNA cleavage, semiquantitative scale)” value on Human recombinant Top1 is reported as “++”.
As to `COc1ccc2c(c1)C(=O)c1c-2n(CCCN)c(=O)c2cc([N+](=O)[O-])ccc12` [Compound 54 of (B)], the GI50 with HOP-62 was under 0.01 µM; in the assay with HCT-116 it was under 0.01 µM; with UACC-62, under 0.01 µM; with SN12C, under 0.01 µM; in assay [1], 0.02 µM. The “MGM” value in assay [1] (series (B), mean graph midpoint GI50, ± standard error where two determinations, listed as 54) came out at 0.02 ± 0.0008 µM.
Consider `O=C1c2ccccc2-c2c1c1ccc([N+](=O)[O-])cc1c(=O)n2CCCO` [Compound 63 of (B)], for which the GI50 in the assay on HCT-116 was 0.19 µM; in the assay with UACC-62 it was 0.31 µM; in the assay on SN12C, 0.47 µM; in the assay on DU-145, 0.43 µM; in the assay with MDA-MB-435, 1.97 µM; in the assay with OVCAR-3 it was 0.87 µM. Besides, in assay [1], the GI50 came to 0.89 ± 0.22 µM.
With `Cl.NCCCCn1c2c(c3ccccc3c1=O)C(=O)c1ccccc1-2` [Compound 71 of (A)], the “Top1 inhibition (semiquantitative scale)” value at Human recombinant Top1 (series (A), relative to 1 μM camptothecin) was “+++ (between 75% and 95% activity)”.
As for `Cl.NCCCCCCCCCCCn1c2c(c3ccccc3c1=O)C(=O)c1ccccc1-2` [Compound 78 of (A)], the IC50 on Tdp1 (setting [2]) worked out at 13 µM. For the same compound, the “Top1 (compound-induced DNA cleavage due to Top1 inhibition)” value at Human recombinant Top1 (relative to 1 μM camptothecin) is “+ (between 20 and 50%, activity)”.
With `Cl.NCCCCCCCCCCCCn1c2c(c3ccccc3c1=O)C(=O)c1ccccc1-2` [Compound 79 of (A)], the IC50 at Tdp1 (setting [2]) worked out at 15 µM. The “Top1 (compound-induced DNA cleavage due to Top1 inhibition)” value on Human recombinant Top1 (relative to 1 μM camptothecin) is listed as 0/+.
